Results reported in patent US12029751B2, “Therapeutic agent for nervous system disease” (OSAKA UNIVERSITY, priority 2017, dated 2024).

What was measured:
[1] = test system: rat spinal cord injury model; test: Thermal algesimetry test in rat spinal cord injury model; assay type: in vivo; conditions: for Thermal algesimetry test, Time after spying infrared thermal stimulation: right sole
Method: Six-week-old female Wistar rats were used. The rats were purchased from Charles River Laboratories Japan, Inc. (Yokohama, Japan). Anesthesia was performed as follows. A 1:10 dilution of a mixture of three anesthetic agents in physiological saline was administered by intraperitoneal injection. One dose consisted of 0.2 mg/kg of midazolam, 0.015 mg/kg of medetomidine, and 0.25 mg/kg of butorphanol. The rat was placed in a prone position on an operating table, and a dorsal midline incision was made. The T10 vertebral arch was removed to expose the posterior face of the spinal cord, and the left spinal cord was hemisected using a sharp-pointed surgical scalpel (spitz mess). The skin was sutured using a 4-0 nylon thread and the surgery was completed. A comparison was made among three groups: a methylcobalamin treatment group, an untreated group, and a sham group. Immediately after the surgical operation, an osmotic minipump filled with methylcobalamin (1 mg/kg/day) or physiological saline was placed for the methylcobalamin treatment group and the untreated group, respectively, and left in the left dorsal subcutaneous space. The sham group underwent only resection of the Th10 vertebral arch.
Each rat was separately accommodated in a dedicated cage, an infrared thermal stimulation was applied to the right sole, and time until the rat retracted the hind limb was measured. To avoid damage to the skin, the stimulation was continued for 15 seconds at the maximum. The evaluations were performed before surgery, and at 7, 14, 21, and 28 days after the surgery.

[2] = test system: Mouse macrophage cell line J774A.1; test: Western blot of M1 markers (IL-1β, iNOS) and M2 markers (Arg1, CD206) in macrophage cell line; assay type: cell-based; conditions: for Arg1 protein / GAPDH protein / CD206 protein / GAPDH protein: 72 hours; for IL-1β protein / GAPDH protein / iNOS protein / GAPDH protein: 24 hours
Method: Mouse macrophage cell line J774A.1 (JCRB9108) was purchased from JCRB Cell Bank (Laboratory of Cell Cultures), Osaka, Japan. Cells were cultured in DMEM containing 10% FBS and 1% penicillin/streptomycin.
The J774A.1 cells (Example 5-1) were seeded on a dish having a diameter of 6 cm. After 4 days, proteins were collected using a cell lysis buffer containing a cocktail of protease inhibitors. The protein concentration was measured by BCA assay. Then, 50 μg of each sample was subjected to SDS-PAGE, and the electrophoresed proteins were transferred to a polyvinylidene difluoride membrane. The membrane was blocked with a blocking buffer for 1 hour, and then the proteins were allowed to react with primary antibodies at 4° C. overnight. The proteins were further allowed to react with a secondary antibody at room temperature for 1 hour and detected using ECL Western Blotting Detection System. To detect the M1 markers iNOS and IL-1β, lipopolysaccharide (LPS) (100 ng/ml) and methylcobalamin were added at 24 hours before collecting the proteins. To detect the M2 markers Arg1 and CD206, IL-4 (20 ng/ml) and methylcobalamin were added at 72 hours before collecting the proteins.
The primary antibodies used were a rabbit anti-IL-1β polyclonal antibody (Santa Cruz), a rabbit anti-iNOS monoclonal antibody (Abeam), a rabbit anti-Arg1 polyclonal antibody (Santa Cruz), and a rabbit anti-CD206 monoclonal antibody (Abeam). The secondary antibody used was anti-rabbit IgG, horseradish peroxidase-linked whole antibody from donkey (GE Healthcare Life Sciences).

[3] = test system: microglia cell line (6-3 cells); test: Western blot of M1 markers (iNOS, IL-1β) and M2 markers (Arg1, CD206) in microglia; assay type: cell-based
Method: To a microglia cell line (6-3 cells), LPS (100 ng/ml) and an anti-inflammatory cytokine IL-4 (20 ng/ml) were added. Methylcobalamin solutions each having a different concentration ranging from 1 nM to 1 mM were added to the mixture, and proteins were recovered from each mixture at 1 and 3 days after the addition. Electrophoresis and transfer to a membrane were performed, the membrane was blocked, and the cells were allowed to react with each of primary antibodies against M1 markers (iNOS and IL-1β) and M2 markers (Arg1 and CD206) at 4° C. overnight. Cells were allowed to react with a secondary antibody at room temperature for 1 hour, and bands were detected using a detector.
The primary antibodies used were an anti-iNOS antibody, an anti-IL-1β antibody, an anti-Arg1 antibody, and an anti-CD206 (a mannose receptor) antibody. The secondary antibody used was an Anti-Rabbit IgG, HRP-Linked Whole Ab Sheep.

Compound: C/C1=C2/[N-][C@H]([C@H](CC(N)=O)[C@@]2(C)CCC(=O)NC[C@@H](C)OP(=O)([O-])O[C@H]2[C@@H](O)[C@@H](n3cnc4cc(C)c(C)cc43)O[C@@H]2CO)[C@]2(C)N=C(/C(C)=C3N=C(/C=C4N=C1[C@@H](CCC(N)=O)C\4(C)C)[C@@H](CCC(N)=O)[C@]\3(C)CC(N)=O)[C@@H](CCC(N)=O)[C@]2(C)CC(N)=O.[CH3-].[Co+3] [MeCbl, methylcobalamin]
- Thermal algesimetry test, Time after spying infrared thermal stimulation ([1]; 0 days after surgery (before surgery)): 9.99 s
- right-lower-extremity hyperesthesia (thermal algesimetry test) ([1]; 21 and 28 days after the surgery, 1 mg/kg/day osmotic minipump): significantly improved
- Thermal algesimetry test, Time after spying infrared thermal stimulation ([1]; 7 days after surgery): 8.59 s
- Thermal algesimetry test, Time after spying infrared thermal stimulation ([1]; 14 days after surgery): 8.86 s
- Thermal algesimetry test, Time after spying infrared thermal stimulation ([1]; 21 days after surgery): 9.61 s
- Thermal algesimetry test, Time after spying infrared thermal stimulation ([1]; 28 days after surgery): 9.92 s
- Arg1 protein / GAPDH protein ([2]; IL-4 20 ng/ml + MeCbl 1 nM): 1.42
- CD206 protein / GAPDH protein ([2]; IL-4 20 ng/ml + MeCbl 1 nM): 1.28
- Arg1 protein / GAPDH protein ([2]; IL-4 20 ng/ml + MeCbl 10 nM): 1.60
- CD206 protein / GAPDH protein ([2]; IL-4 20 ng/ml + MeCbl 10 nM): 1.49
- Arg1 protein / GAPDH protein ([2]; IL-4 20 ng/ml + MeCbl 100 nM): 1.93
- CD206 protein / GAPDH protein ([2]; IL-4 20 ng/ml + MeCbl 100 nM): 1.53
- Arg1 protein / GAPDH protein ([2]; IL-4 20 ng/ml + MeCbl 100 nM, listed as methylcobalamin): significantly increased
- Arg1 protein / GAPDH protein ([2]; IL-4 20 ng/ml + MeCbl 1 μM): 1.65
- CD206 protein / GAPDH protein ([2]; IL-4 20 ng/ml + MeCbl 1 μM): 1.58
- Arg1 protein / GAPDH protein ([2]; IL-4 20 ng/ml + MeCbl 1 μM, listed as methylcobalamin): significantly increased
- Arg1 protein / GAPDH protein ([2]; IL-4 20 ng/ml + MeCbl 10 μM): 1.26
- CD206 protein / GAPDH protein ([2]; IL-4 20 ng/ml + MeCbl 10 μM): 1.08
- Arg1 protein / GAPDH protein ([2]; IL-4 20 ng/ml + MeCbl 100 μM): 0.92
- CD206 protein / GAPDH protein ([2]; IL-4 20 ng/ml + MeCbl 100 μM): 1.12
- Arg1 protein / GAPDH protein ([2]; IL-4 20 ng/ml + MeCbl 1 mM): 0.54
- CD206 protein / GAPDH protein ([2]; IL-4 20 ng/ml + MeCbl 1 mM): 0.78
- methylcobalamin concentration at peaks of the CD206 levels ([2]; IL-4 + methylcobalamin, Western blot): 100 to 1000 nM
- IL-1β protein / GAPDH protein ([2]; LPS 100 ng/ml + MeCbl 1 nM): 0.91
- iNOS protein / GAPDH protein ([2]; LPS 100 ng/ml + MeCbl 1 nM): 0.87
- IL-1β protein / GAPDH protein ([2]; LPS 100 ng/ml + MeCbl 10 nM): 0.68
- iNOS protein / GAPDH protein ([2]; LPS 100 ng/ml + MeCbl 10 nM): 0.56
- IL-1β protein / GAPDH protein ([2]; LPS 100 ng/ml + MeCbl 100 nM): 0.46
- iNOS protein / GAPDH protein ([2]; LPS 100 ng/ml + MeCbl 100 nM): 0.15
- IL-1β protein / GAPDH protein ([2]; LPS 100 ng/ml + MeCbl 100 nM, listed as methylcobalamin): significantly decreased
- IL-1β protein / GAPDH protein ([2]; LPS 100 ng/ml + MeCbl 1 μM): 0.46
- iNOS protein / GAPDH protein ([2]; LPS 100 ng/ml + MeCbl 1 μM): 0.27
- IL-1β protein / GAPDH protein ([2]; LPS 100 ng/ml + MeCbl 10 μM): 0.60
- iNOS protein / GAPDH protein ([2]; LPS 100 ng/ml + MeCbl 10 μM): 0.33
- IL-1β protein / GAPDH protein ([2]; LPS 100 ng/ml + MeCbl 100 μM): 0.75
- iNOS protein / GAPDH protein ([2]; LPS 100 ng/ml + MeCbl 100 μM): 0.45
- IL-1β protein / GAPDH protein ([2]; LPS 100 ng/ml + MeCbl 1 mM): 1.26
- iNOS protein / GAPDH protein ([2]; LPS 100 ng/ml + MeCbl 1 mM): 0.53
- iNOS level (Western blot) as compared with LPS alone ([2]; LPS + 100 nM to 10 μM methylcobalamin): significantly decreased
- amount of Arg1 protein as compared with IL-4 alone ([3]; IL-4 + 1 nM to 10 μM methylcobalamin): significantly increased
- amount of CD206 as compared with IL-4 alone ([3]; IL-4 + 10 nM to 100 nM methylcobalamin): significantly increased
- Arg1 (amount of protein, IL-4 alone = 1.00) ([3]; MeCbl 1 nM): 1.78
- CD206 (amount of protein, IL-4 alone = 1.00) ([3]; MeCbl 1 nM): 1.11
- Arg1 (amount of protein, IL-4 alone = 1.00) ([3]; MeCbl 10 nM): 2.03
- CD206 (amount of protein, IL-4 alone = 1.00) ([3]; MeCbl 10 nM): 1.42
- Arg1 (amount of protein, IL-4 alone = 1.00) ([3]; MeCbl 100 nM): 2.72
- CD206 (amount of protein, IL-4 alone = 1.00) ([3]; MeCbl 100 nM): 1.39
- Arg1 (amount of protein, IL-4 alone = 1.00) ([3]; MeCbl 1 μM): 2.20
- CD206 (amount of protein, IL-4 alone = 1.00) ([3]; MeCbl 1 μM): 1.17
- Arg1 (amount of protein, IL-4 alone = 1.00) ([3]; MeCbl 10 μM): 2.08
- CD206 (amount of protein, IL-4 alone = 1.00) ([3]; MeCbl 10 μM): 1.17
- Arg1 (amount of protein, IL-4 alone = 1.00) ([3]; MeCbl 100 μM): 1.37
- CD206 (amount of protein, IL-4 alone = 1.00) ([3]; MeCbl 100 μM): 1.24
- Arg1 (amount of protein, IL-4 alone = 1.00) ([3]; MeCbl 1 mM): 0.59
- CD206 (amount of protein, IL-4 alone = 1.00) ([3]; MeCbl 1 mM): 1.11
- amount of iNOS protein as compared with LPS alone ([3]; LPS + at least 10 nM methylcobalamin): significantly decreased
- amount of IL-1β protein as compared with LPS alone ([3]; LPS + at least 1 μM methylcobalamin): significantly decreased
- IL-1β (amount of protein, LPS alone = 1.00) ([3]; MeCbl 1 nM): 1.02
- iNOS (amount of protein, LPS alone = 1.00) ([3]; MeCbl 1 nM): 0.87
- IL-1β (amount of protein, LPS alone = 1.00) ([3]; MeCbl 10 nM): 0.95
- iNOS (amount of protein, LPS alone = 1.00) ([3]; MeCbl 10 nM): 0.74
- IL-1β (amount of protein, LPS alone = 1.00) ([3]; MeCbl 100 nM): 0.83
- iNOS (amount of protein, LPS alone = 1.00) ([3]; MeCbl 100 nM): 0.76
- IL-1β (amount of protein, LPS alone = 1.00) ([3]; MeCbl 1 μM): 0.72
- iNOS (amount of protein, LPS alone = 1.00) ([3]; MeCbl 1 μM): 0.61
- IL-1β (amount of protein, LPS alone = 1.00) ([3]; MeCbl 10 μM): 0.58
- iNOS (amount of protein, LPS alone = 1.00) ([3]; MeCbl 10 μM): 0.46
- IL-1β (amount of protein, LPS alone = 1.00) ([3]; MeCbl 100 μM): 0.53
- iNOS (amount of protein, LPS alone = 1.00) ([3]; MeCbl 100 μM): 0.36
- IL-1β (amount of protein, LPS alone = 1.00) ([3]; MeCbl 1 mM): 0.32
- iNOS (amount of protein, LPS alone = 1.00) ([3]; MeCbl 1 mM): 0.05
